# Values of other authors as cited in article PMC5752104 (Bioorganic & medicinal chemistry, 2017).
# Tests used:
# GPR55 = GPR55 (Homo sapiens, UniProt Q9Y2T6)
# Chain of GPR55 (Q9Y2T6 whole entry): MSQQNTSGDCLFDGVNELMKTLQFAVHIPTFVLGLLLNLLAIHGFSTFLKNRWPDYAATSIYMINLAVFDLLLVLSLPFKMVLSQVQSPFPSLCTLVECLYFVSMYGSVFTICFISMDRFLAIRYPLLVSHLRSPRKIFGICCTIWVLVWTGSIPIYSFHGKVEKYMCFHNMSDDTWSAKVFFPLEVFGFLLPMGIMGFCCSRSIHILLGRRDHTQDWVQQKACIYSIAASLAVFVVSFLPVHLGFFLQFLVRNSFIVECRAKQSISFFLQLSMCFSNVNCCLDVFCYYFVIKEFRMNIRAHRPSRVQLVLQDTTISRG
# Chain of GPR55 (P32121 whole entry partner): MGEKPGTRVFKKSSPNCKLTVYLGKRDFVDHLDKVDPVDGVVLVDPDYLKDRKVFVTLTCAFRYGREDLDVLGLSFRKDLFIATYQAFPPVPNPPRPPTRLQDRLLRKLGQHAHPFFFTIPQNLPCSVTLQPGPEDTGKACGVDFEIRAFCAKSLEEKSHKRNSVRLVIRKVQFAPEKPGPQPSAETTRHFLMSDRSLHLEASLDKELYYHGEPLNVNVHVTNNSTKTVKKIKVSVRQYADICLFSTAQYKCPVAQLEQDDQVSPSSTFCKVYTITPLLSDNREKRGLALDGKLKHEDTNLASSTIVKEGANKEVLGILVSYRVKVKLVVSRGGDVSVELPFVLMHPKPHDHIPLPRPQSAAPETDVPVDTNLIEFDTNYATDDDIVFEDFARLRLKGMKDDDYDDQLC
Compound,activity at CB1 (CB1),activity at CB2 (CB2),activity at GPR35 (GPR35),effect at GPR55 (GPR55)
"COc1ccccc1/C=C/C(=O)NC(=S)Nc1ccc(S(=O)(=O)N(C)c2ccccc2)cc1 [6fv, (E)-3-(2-Methoxyphenyl)-N-((4-(N-methyl-N-phenylsulfamoyl)phenyl)carbamothioyl)acrylamide]",no activity,no activity,no activity,
Cc1c(C(=O)NN2CCCCC2)nn(-c2ccc(Cl)cc2Cl)c1-c1ccc(I)cc1 [AM251],,,,strongly activates GPR55
CCCCCCC(C)(C)c1ccc([C@@H]2C[C@H](O)CC[C@H]2CCCO)c(O)c1 [CP55940],,,,acts as an antagonist
